Results published in article PMC6278341 (Molecules, 2018).
Where “and” joins values, the source holds several entries; their conditions need not be identical. Identical values can stand only once. Each block holds one compound with its values, some of them ahead of it.

Legend:
5-HT2A = 5-HT2A (Homo sapiens, UniProt P28223); test: Off target binding, 5-HT2A receptor
Description: (§1) Off target screening data were obtained through the NIDA Addiction Treatment Discovery Program contract (ADA151001) with Oregon Health & Science University.

5-HT1A = target: T1, 5-HT1A (Homo sapiens, UniProt P08908); test: Off target binding, 5-HT1A receptor
T1 sequence (P08908 1-422): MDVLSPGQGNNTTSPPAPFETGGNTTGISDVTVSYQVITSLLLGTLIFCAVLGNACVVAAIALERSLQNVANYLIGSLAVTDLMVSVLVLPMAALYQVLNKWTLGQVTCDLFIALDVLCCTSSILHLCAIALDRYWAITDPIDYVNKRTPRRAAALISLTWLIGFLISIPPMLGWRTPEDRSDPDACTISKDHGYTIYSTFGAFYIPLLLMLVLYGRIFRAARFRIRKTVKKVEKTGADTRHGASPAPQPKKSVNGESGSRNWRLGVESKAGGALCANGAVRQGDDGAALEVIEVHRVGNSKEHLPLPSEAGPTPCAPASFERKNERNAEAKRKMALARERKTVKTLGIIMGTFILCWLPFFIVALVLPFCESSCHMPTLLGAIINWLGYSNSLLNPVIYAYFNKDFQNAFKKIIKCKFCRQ
Description: as §1

D1 = D1 (Homo sapiens, UniProt P21728); test: Off target binding, D1 receptor
Description: as §1

D4 = target: T2, D4 (Homo sapiens, UniProt P21917); test: Off target binding, D4 receptor
T2 sequence (P21917 1-419): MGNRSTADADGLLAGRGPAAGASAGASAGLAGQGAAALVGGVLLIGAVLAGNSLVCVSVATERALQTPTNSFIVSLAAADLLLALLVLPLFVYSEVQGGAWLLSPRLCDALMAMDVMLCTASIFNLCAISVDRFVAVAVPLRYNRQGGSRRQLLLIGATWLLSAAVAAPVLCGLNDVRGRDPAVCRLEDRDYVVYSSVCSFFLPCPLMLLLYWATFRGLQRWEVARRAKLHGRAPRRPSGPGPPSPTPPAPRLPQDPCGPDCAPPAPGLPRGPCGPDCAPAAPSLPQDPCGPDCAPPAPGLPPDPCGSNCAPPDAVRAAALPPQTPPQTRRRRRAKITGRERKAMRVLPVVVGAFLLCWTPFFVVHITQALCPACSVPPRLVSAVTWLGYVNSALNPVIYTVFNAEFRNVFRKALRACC
Description: as §1

[1] = Lipophilicity (logD7.4), 1-octanol/sodium phosphate buffer; assay type: physicochemical; conditions: room temperature, 1-octanol/sodium phosphate buffer pH 7.4, n = 6
Protocol: The radioligand in ethanol/saline was placed in sodium phosphate buffer (0.15 M, pH 7.4) for the duration of the experiment followed by the determination of its radiochemical purity to obtain information on its stability in buffer. […] Aliquots (1.0 mL) were distributed to eight borosilicate disposable culture tubes (13 × 100 mm). […] Radioactivities from six tubes were extracted with 1-octanol. Extraction was performed by vortexing the tubes with their content for 1 min. The tubes were centrifuged for 1 min. The organic and the aqueous phases were separated. Each phase was then sampled 50 μL and 200 μL respectively and counted separately in a well-type γ-counter (model 1480 Wizard; Perkin-Elmer) with an electronic window set between 360 and 1800 keV. The remaining two tubes, contained the radioactivity in buffer and served as stability measures for the radioligand. […] The radiochemical composition of the aqueous buffer after extraction with 1-octanol was determined with HPLC on an X-Terra C18 column (10 μm, 7.8 × 300 mm; Waters Corp., Milford, MA, USA) eluted with MeOH:H2O:Et3N (80:20:0.1 v/v/v) at 4.0 mL/min. […] The resulting radiochromatograms provided correction factors for the γ-counter counts to determine parent radioactivity only (corrected radioactivity). […] LogD7.4 was calculated according to the following formula:(1) logD7.4=log(cpm organic phase/corrected cpm aqueous phase)

D3R [2] = target: T3, D3R (Rattus norvegicus, UniProt P19020); test: PET imaging in rats; assay type: in vivo; conditions: for Peak brain radioactivity concentration: rat PET
T3 construct: from tissue; host or cells: brain of living Sprague-Dawley rats
Protocol: (§3) In some rats, tariquidar (16 mg/kg, i.v.) was administered at 15 min before radioligand injection. […] For experiments in mice (wild type and P-gp/BCRP knock-out; male; Taconic FVB.129P2-Abcb1a^tm1BorAbcb1b^tm1BorAbcg2^tm1AhsN7; 27 ± 1.1 g), scans were acquired with a microPET Focus 120 camera for a duration of 90 min. […] Monkey (male rhesus macaque, 9.9 kg) experiments were acquired using microPET Focus 220 (Siemens Medical Solutions, Knoxville TN) for a duration of 90 min.
(§4) Images were reconstructed using Fourier rebinning followed by 2D OSEM with attenuation correction for rats and monkey and without attenuation correction for mice. Scatter correction was applied only for monkey. Volume of interests were delineated manually for rats and mice, and with a co-registered MRI template for monkey. All radioactivity was decay-corrected and expressed as standardized uptake value (SUV) which is radioactivity concentration corrected for subject weight and administered dose. Time activity curves in SUV were obtained and compared between conditions. The PET data analysis was performed using PMOD.

[3] = Tissue stability, monkey brain homogenate; assay type: in vitro ADME; conditions: at least 30 min at 37 °C
Protocol: (§2) These tissues were stored frozen at −70 °C but thawed on the day of analysis. […] Plasma analysis was performed as reported previously.

[4] = Plasma free fraction by ultrafiltration; assay type: in vitro ADME; conditions: human plasma, n = 3; read-out: Human plasma free fraction (fp)
Protocol: The mixture was incubated at room temperature for 10 min and then processed as described previously. The ultrafiltration components that contained high radioactivity were allowed to decay to within the optimal range of the γ-counter before they were counted. Quantification of the ultrafiltrates was performed gravimetrically.

[5] = Tissue stability, rat whole blood, plasma and brain homogenate; assay type: in vitro ADME; conditions: at least 30 min at 37 °C
Protocol: as §2

[6] = Tissue stability, human plasma and brain homogenate; assay type: in vitro ADME; conditions: at least 30 min at 37 °C
Protocol: as §2

[7] = Stability of formulated radioligand in saline containing ethanol; assay type: physicochemical; conditions: saline containing ethanol (10% v/v), up to 2.5 h; initial 99%
D3R [8] = test: PET imaging in monkey; assay type: in vivo, rhesus macaque; conditions: for AUC 0-90 min higher than at baseline: tariquidar
Protocol: as §3, §4

[9] = Rat ex vivo measurements (radiometabolites and tissue concentrations); assay type: in vivo; conditions: for Unmetabolized [^11C]1: 30 min after i.v. injection
Protocol: The rats were then immediately sacrificed by decapitation, and their cortices, cerebella, and striata were excised. Each of the brain tissues was placed in MeCN (1 mL) and counted in a γ-counter. […] Water (500 μL) was then added and the tissues were further homogenized and counted in the γ-counter for calculating recoveries into MeCN. The homogenates were centrifuged at 10,000× g for 1 min. […] After separating plasma from blood cells, plasma samples (200 μL) were counted in γ-counter and plasma aliquots (450 μL) were each placed in MeCN (720 μL) along with of carrier 1 (5 μg) for deproteinization. After mixing the samples well, H2O (100 μL) was added. The samples were further mixed well, counted in a γ-counter, and centrifuged at 10,000× g for 1 min. Supernatants were injected onto the radio-HPLC and analyzed under the above conditions. All precipitates were counted in the γ-counter for calculating recoveries in the supernatants that were injected onto the HPLC.

[10] = Cell uptake percentage in rat whole blood in vitro; assay type: in vitro ADME; conditions: in vitro at 37 °C, n = 3
Protocol: The capillary tubes were then centrifuged, and Hct determined using a StatSpin® CritSpin™ Microhematocrit system (Los Angeles, CA, USA). Aliquots of anticoagulated rat blood (250 µL) were placed in three Eppendorf tubes (1.5 mL). […] Then whole blood (50 µL) was removed from each tube and counted in the γ-counter. The tubes were then centrifuged before removing plasma (50 µL) for γ-counting.

P-gp/BCRP = test: PET imaging in wild type and P-gp/BCRP knock-out mice; assay type: in vivo, mouse
Protocol: as §3, §4

[11] = set-up: method as in PMID 19573609; conditions: cited from earlier work

T3 sequence (P19020 whole entry): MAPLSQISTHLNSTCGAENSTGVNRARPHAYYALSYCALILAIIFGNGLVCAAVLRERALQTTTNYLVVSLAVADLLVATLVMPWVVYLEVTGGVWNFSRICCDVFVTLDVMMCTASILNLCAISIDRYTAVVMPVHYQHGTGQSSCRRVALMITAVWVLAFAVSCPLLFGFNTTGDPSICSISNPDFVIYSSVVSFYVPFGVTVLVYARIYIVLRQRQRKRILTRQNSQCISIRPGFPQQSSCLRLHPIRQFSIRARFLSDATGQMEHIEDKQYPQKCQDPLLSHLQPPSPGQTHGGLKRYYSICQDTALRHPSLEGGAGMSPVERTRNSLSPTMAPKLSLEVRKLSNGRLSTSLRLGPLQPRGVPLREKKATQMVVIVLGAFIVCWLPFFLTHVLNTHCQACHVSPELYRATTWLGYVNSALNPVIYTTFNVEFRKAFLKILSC
Sequence of D1 (P21728 whole entry): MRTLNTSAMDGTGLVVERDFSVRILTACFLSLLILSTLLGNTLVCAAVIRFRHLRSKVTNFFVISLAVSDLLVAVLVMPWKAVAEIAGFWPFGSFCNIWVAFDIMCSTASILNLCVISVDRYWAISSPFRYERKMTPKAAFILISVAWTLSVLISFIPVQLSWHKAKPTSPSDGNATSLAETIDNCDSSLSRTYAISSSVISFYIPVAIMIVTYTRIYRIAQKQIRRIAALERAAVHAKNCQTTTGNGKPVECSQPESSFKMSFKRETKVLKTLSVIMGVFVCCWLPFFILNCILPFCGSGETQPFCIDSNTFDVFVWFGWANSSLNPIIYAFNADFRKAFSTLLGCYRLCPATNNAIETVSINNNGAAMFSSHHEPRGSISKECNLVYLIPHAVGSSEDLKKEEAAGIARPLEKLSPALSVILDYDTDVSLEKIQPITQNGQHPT
Sequence of 5-HT2A (P28223 whole entry, species assumed): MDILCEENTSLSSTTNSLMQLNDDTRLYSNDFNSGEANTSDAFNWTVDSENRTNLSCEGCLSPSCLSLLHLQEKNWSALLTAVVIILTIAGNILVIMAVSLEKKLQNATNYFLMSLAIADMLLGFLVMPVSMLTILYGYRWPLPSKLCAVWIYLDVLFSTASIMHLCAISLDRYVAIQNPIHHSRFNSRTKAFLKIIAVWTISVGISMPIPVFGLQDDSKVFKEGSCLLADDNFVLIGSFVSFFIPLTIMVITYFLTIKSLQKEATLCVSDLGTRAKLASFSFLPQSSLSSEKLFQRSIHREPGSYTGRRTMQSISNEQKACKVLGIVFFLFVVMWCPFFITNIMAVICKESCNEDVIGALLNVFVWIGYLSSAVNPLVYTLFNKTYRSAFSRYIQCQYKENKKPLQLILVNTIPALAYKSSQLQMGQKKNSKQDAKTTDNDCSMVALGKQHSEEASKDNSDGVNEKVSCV

- Ki (5-HT2A): 0.0197 ± 0.0014 µM
- Ki (5-HT1A): 0.0923 ± 0.008 µM
- Ki (D1): 2.29 ± 0.34 µM
- Ki (D4): 0.3 ± 0.1 µM
SMILES: COc1c(Cl)cccc1N1CCN(CCCCNC(=O)c2cc3ccccc3[nH]2)CC1 [Compound 1, N-(4-(4-(3-chloro-2-methoxyphenyl)piperazin-1-yl)butyl)-1H-indole-2-carboxamide]

- melting point: 148 to 149 °C
SMILES: O=C(NCCCCN1CCN(c2cccc(Cl)c2O)CC1)c1cc2ccccc2[nH]1 [Compound 2, N-(4-(4-(3-Chloro-2-hydroxyphenyl)piperazin-1-yl)butyl)-1H-indole-2-carboxamide]

- logD [1]: 3.33 ± 0.13
- Peak brain radioactivity concentration (D3R [2]; after tariquidar (16 mg/kg, i.v.)): 3.4 SUV
- Peak brain radioactivity concentration (D3R [2]; baseline): 1.1 SUV
- change in brain TACs on BP897 challenge (D3R [2]; rats, tariquidar 16 mg/kg i.v., BP897 0.5 mg/kg i.v. 10 min before or 15 min after radioligand): No major changes
- change in brain TACs on spiperone challenge (D3R [2]; rats, tariquidar 16 mg/kg i.v., spiperone 1.0 mg/kg i.v. 10 min before or 15 min after radioligand): No obvious changes
- stability [3]: 100%
- fraction unbound at 10 min [4]: 0.0015 ± 0.0001
- stability ([5]; rat brain homogenate): 99.4%
- stability ([5]; rat plasma): 98.8%
- stability ([5]; rat whole blood): 100%
- stability ([6]; human brain homogenate): 99.8%
- stability ([6]; human plasma): 99.3%
- radiochemical purity after storage (stability) [7]: 96%
- peak whole brain radioactivity uptake (D3R [8]; baseline): 2−3 SUV
- AUC 0-90 min higher than at baseline (D3R [8]; occipital cortex): ~ 20%
- AUC 0-90 min higher than at baseline (D3R [8]; putamen): 70%
- increase of rat brain tissue concentration, tariquidar-treated vs untreated ([9]; ex vivo, 30 min, tariquidar 16 mg/kg i.v.): 2.4–2.6 fold
- Unmetabolized [^11C]1 ([9]; rat cerebellum, baseline): 98.8%
- [^11C]1 Concentration ([9]; rat cerebellum, baseline, ex vivo 30 min): 1.20 SUV
- Unmetabolized [^11C]1 ([9]; rat cerebellum, tariquidar-treated): 98.8%
- [^11C]1 Concentration ([9]; rat cerebellum, tariquidar-treated, ex vivo 30 min): 2.84 SUV
- Unmetabolized [^11C]1 ([9]; rat cortex, baseline): 99.0%
- [^11C]1 Concentration ([9]; rat cortex, baseline, ex vivo 30 min): 1.33 SUV
- Unmetabolized [^11C]1 ([9]; rat cortex, tariquidar-treated): 98.7%
- [^11C]1 Concentration ([9]; rat cortex, tariquidar-treated, ex vivo 30 min): 3.49 SUV
- Unmetabolized [^11C]1 ([9]; rat plasma, baseline): 76% and 76.1%
- [^11C]1 Concentration ([9]; rat plasma, baseline, ex vivo 30 min after i.v. injection): 0.06 SUV
- [^11C]1 Concentration ([9]; rat plasma, tariquidar-treated (16 mg/kg, i.v.), ex vivo 30 min): 0.04 SUV
- Unmetabolized [^11C]1 ([9]; rat plasma, tariquidar-treated): 69% and 68.9%
- Unmetabolized [^11C]1 ([9]; rat striatum, baseline): 99.3%
- [^11C]1 Concentration ([9]; rat striatum, baseline, ex vivo 30 min): 1.36 SUV
- Unmetabolized [^11C]1 ([9]; rat striatum, tariquidar-treated): 98.8%
- [^11C]1 Concentration ([9]; rat striatum, tariquidar-treated, ex vivo 30 min): 3.53 SUV
- [^11C]1 Concentration ([9]; rat whole blood, baseline, ex vivo 30 min): 0.09 SUV
- [^11C]1 Concentration ([9]; rat whole blood, tariquidar-treated, ex vivo 30 min): 0.07 SUV
- cellular uptake in rat whole blood [10]: 55.2 ± 1.1%
- peak brain uptake (P-gp/BCRP; P-gp/BCRP KO mice): 1.6 SUV
- efflux transporter substrate behaviour (P-gp/BCRP; rodents): avid brain efflux transporter substrate
- peak brain uptake (P-gp/BCRP; wild type mice): 0.7 SUV
SMILES: [11CH3]Oc1c(Cl)cccc1N1CCN(CCCCNC(=O)c2cc3ccccc3[nH]2)CC1 [[^11C]1, [O-methyl-^11C]N-(4-(4-(3-Chloro-2-methoxyphenyl)-piperazin-1-yl)butyl)-1H-indole-2-carboxamide]

SMILES: C[C@@H](N[C@@H]1C[C@H](c2cccc(O[11CH3])c2)N(c2ccc(C(F)(F)F)cc2)C1=O)c1ccccc1 [[^11C]MePPEP]
- plasma free fraction (fp) [11]: 0.05 ± 0.01%
